Converted amounts (≈) assume the structure as drawn. Where two headings read alike, the source gives them in different places.
What was measured:
[1] = biological target: T1, E. coli DnaE (DNA polymerase III α-subunit from Escherichia coli) (Escherichia coli, UniProt P10443); test: In vitro DnaE single enzyme assay (E. coli); format: biochemical
T1 construct: EcDnaE (E. coli DnaE residues 1-1160); 6xHis (N); made in house; host or cells: E. coli BL21(DE3)
Description: (§1) Plasmids encoding EcDnaE (E. coli DnaE residues 1-1160) and SaDnaE (S. aureus DnaE residues 1-1065) with 6×His N-terminal tags, were overexpressed in BL21(DE3) and BL21-AI cells (Invitrogen), respectively. Cells were grown in LB media to an OD ˜0.45 pelleted and then resuspended in Minimal Media, as described in Pryor et al. (1997, Protein Expr Purif. 10:309-19), and inducer (0.4 mM IPTG or 0.2% arabinose) for 21 hours at 18° C. at 220 rpm. Cells were then harvested, frozen for 20 minutes at −80° C. and thawed. Pellets were resuspended in 1× Talon buffer (50 mM Sodium Phosphate, 300 mM Sodium Chloride, pH 7.4) +10% glycerol +Roche PI's (-EDTA). Cells were lysed with two passes through a French press, then centrifuged for 45 minutes at 40,000 rpm (70Ti, Beckman). Supernatant was bound to 5 mL TALON resin (CLONTECH) for 1 hour at room temperature on Nutator. TALON resin was washed with 10 mM imidizole, and DnaE was eluted with 250 mM imidizole. Eluate was concentrated and run on a size exclusion column (SEC200, GE Healthcare) in the following buffer; 25 mM HEPES, 30 mM NaCl,1 mM CaCl2, 5% glycerol, pH 7.9. Pool SEC fractions based on SDS-PAGE run, aliquot, freeze, and store at -80° C.
(§2) DnaE was diluted in 50 mM potassium phosphate pH 7.5, 5 mM BME, 10% glycerol and 200 mM NaCl prior to use.
(§3) The purpose of the DnaE single enzyme assay is to determine the ability of compounds to inhibit the DNA polymerase III α-subunit homolog from Staphylococcus aureus or the α-subunit from Escherichia coli without the other components of the replication machinery. The DnaE single enzyme assay was a modified version of the method, Standard Pol III Assay Using Activated DNA and Four dNTPs, described by Butler et al., 2008, Methods in Molecular Medicine: New Antibiotic Targets 142:25-36. Briefly, in 96-well plates, enzyme was added to a mixture containing 30 mM Tris-HCl pH 7.5, 20% glycerol, 4 mM DTT, 10 mM Mg acetate, 0.025 mM dATP, 0.025 mM dGTP, 0.025 mM dc:TP, 0.011 mM ^3H-dTTP 1 mCi/ml (Perkin-Elmer), and 0.298 mg/mL Dnase I (Sigma) treated “activated” Calf Thymus DNA (Worthington Biochemical). The assay was set up so that 5 μl of compound was distributed to the plates, 90 μl of reaction mix was added to the compound, and 5 μl of enzyme was added to start the reaction. Assays were initiated by the addition of 0.8 μg/ml E. coli or 0.05 μg/ml S. aureus DnaE, incubated for 30 min at 30° C., and terminated by the addition of a 20% trichloroacetic acid and 0.2% sodium pyrophosphate solution. Precipitated labeled DNA was collected on Glass-fiber Filtermat A using Micro96 Harvester, and the filters were washed, dried, and counted in a Microbeta Trilux (Perkin Elmer). Serial dilutions of compounds (in DMSO) were added to the plates before enzyme addition.

[2] = biological target: T2, S. aureus DnaE (DNA polymerase III α-subunit homolog from Staphylococcus aureus) (Staphylococcus aureus, UniProt Q5HF71); test: biochemical; format: biochemical
T2 construct: SaDnaE (S. aureus DnaE residues 1-1065); 6xHis (N); made in house; host or cells: E. coli BL21-AI
T2 sequence (Q5HF71 1-1065): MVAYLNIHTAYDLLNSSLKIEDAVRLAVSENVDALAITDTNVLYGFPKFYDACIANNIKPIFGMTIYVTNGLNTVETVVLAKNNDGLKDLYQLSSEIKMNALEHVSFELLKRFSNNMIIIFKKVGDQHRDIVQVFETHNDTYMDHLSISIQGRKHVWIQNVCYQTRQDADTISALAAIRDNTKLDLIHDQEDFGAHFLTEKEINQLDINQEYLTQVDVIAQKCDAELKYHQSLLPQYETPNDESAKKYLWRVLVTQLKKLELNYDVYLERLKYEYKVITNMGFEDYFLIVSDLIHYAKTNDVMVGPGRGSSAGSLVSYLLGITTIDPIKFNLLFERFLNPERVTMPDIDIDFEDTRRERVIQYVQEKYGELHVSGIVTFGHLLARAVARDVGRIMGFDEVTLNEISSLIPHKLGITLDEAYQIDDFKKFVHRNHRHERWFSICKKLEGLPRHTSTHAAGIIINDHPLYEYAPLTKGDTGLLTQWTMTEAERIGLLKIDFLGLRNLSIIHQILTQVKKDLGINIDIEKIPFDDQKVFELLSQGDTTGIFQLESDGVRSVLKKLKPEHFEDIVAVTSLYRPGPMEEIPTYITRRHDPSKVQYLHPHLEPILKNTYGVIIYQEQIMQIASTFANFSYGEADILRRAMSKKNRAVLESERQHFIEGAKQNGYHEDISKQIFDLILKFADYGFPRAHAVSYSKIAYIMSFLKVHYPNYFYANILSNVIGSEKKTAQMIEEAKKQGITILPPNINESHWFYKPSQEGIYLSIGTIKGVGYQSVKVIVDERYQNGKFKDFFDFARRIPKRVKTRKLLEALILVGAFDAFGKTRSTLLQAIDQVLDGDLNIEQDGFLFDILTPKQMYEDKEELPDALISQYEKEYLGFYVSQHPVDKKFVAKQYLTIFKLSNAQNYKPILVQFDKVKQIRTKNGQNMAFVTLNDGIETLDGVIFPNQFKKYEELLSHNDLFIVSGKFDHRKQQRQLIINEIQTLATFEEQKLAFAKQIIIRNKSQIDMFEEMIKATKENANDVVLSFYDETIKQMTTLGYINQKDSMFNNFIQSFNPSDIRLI
Description: as §1, §2, §3

[3] = tested on: Escherichia coli MB5747 (LS 883, tolC); test: microbe, parasite or virus in culture; format: cell-based; conditions: * = some reduction of growth versus control at […]; for MIC: Escherichia coli, read-out: E. coli LS883 tolC (MIC), MHII broth
[4] = tested on: Pseudomonas aeruginosa MB5890 (CB1101, efflux-deleted); test: microbe, parasite or virus in culture; format: cell-based; conditions: * = some reduction of growth versus control at […]; for MIC: Pseudomonas aeruginosa, read-out: P. aeruginosa MB5890 efflux-del (MIC), MHII broth
[5] = tested on: Streptococcus pneumoniae MB6357 (CL 2883); test: Nargenicin antibacterial assay (MIC), S. pneumoniae; format: cell-based; conditions: for MIC: Streptococcus pneumoniae
[6] = read-out: S. aureus DnaE IC50 (converted)
[7] = read-out: S. pneumoniae MB2883 (MIC)

T1 sequence (P10443 whole entry, the tested form may be a part): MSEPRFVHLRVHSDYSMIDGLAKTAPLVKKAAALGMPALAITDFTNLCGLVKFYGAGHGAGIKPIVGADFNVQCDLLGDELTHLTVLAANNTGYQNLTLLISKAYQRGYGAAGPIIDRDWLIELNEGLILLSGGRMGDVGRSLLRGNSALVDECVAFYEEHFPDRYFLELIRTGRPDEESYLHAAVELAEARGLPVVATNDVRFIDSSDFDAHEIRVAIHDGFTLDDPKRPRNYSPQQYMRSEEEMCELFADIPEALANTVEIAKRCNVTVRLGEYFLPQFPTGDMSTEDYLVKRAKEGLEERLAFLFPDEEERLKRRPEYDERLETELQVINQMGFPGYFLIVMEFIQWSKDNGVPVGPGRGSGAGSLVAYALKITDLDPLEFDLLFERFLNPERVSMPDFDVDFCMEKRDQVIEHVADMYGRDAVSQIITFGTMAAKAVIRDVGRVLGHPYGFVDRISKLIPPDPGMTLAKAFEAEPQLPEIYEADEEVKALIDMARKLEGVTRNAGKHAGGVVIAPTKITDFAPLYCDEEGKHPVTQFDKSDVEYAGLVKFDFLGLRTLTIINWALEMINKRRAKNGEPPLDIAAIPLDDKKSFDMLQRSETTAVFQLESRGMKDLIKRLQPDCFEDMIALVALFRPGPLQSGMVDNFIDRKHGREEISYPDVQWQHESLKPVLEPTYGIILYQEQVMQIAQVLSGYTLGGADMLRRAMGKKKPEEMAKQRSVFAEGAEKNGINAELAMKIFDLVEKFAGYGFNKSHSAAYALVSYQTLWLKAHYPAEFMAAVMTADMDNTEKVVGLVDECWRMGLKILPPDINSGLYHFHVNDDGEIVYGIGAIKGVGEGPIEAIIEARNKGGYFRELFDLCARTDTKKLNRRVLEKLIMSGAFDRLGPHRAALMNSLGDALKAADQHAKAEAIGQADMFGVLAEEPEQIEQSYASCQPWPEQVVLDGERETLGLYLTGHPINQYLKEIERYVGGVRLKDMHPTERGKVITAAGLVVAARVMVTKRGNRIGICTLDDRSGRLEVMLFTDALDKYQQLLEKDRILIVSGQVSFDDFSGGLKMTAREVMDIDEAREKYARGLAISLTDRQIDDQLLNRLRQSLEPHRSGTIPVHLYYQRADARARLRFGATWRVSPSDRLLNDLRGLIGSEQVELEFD

SMILES | IC50 ([1]; E. coli DnaE IC50) | IC50 [2, 6] | MIC [3] | MIC [4] | MIC [5, 7] | also measured
CO[C@H]1CC2C=C[C@H]3[C@H]4O[C@]2(/C(C)=C/[C@@H](C)[C@@H]([C@@H](C)OC(=O)OC2CCC(O)CC2)OC1=O)[C@@H]3[C@H](O)[C@@H](C)[C@H]4OC(=O)c1ccc[nH]1 (single isomer, unassigned) [Example 35] |  |  |  |  |  | IC50 ([1]; read-out: E. coli DnaE IC50 (converted)): > 76 µM; IC50 ([2]; read-out: S. aureus DnaE IC50): 0.0106 µM; E. coli LS883 tolC (MIC) ([3]; MHII broth): 32 µg/mL; P. aeruginosa MB5890 efflux-del (MIC) ([4]; MHII broth): >128 µg/mL; S. pneumoniae MB2883 (MIC) ([5]; Isosensitest broth, * = some reduction of growth versus control at […]): 64 µg/mL
CO[C@H]1C[C@H]2C=CC3C4[C@H](O)[C@@H](C)[C@@H](OC(=O)c5ccc[nH]5)[C@@H]3O[C@]42/C(C)=C/[C@@H](C)[C@@H]([C@@H](C)OC(=O)C(=O)OCc2cccnc2)OC1=O.O=C(O)C(F)(F)F [Example 208] | 3.41 µM | < 0.00757 µM | 1 µg/mL | 32 µg/mL | > 128 µg/mL | 
CCOC(=O)O[C@H](C)[C@H]1OC(=O)[C@@H](OC)CC2C=C[C@H]3[C@H]4O[C@]2(/C(C)=C/[C@H]1C)[C@@H]3[C@H](O)[C@@H](C)[C@H]4OC(=O)c1ccc[nH]1 (stereo partly shown) [Example 29] | 76.6 µM | < 0.0102 µM | 8 µg/mL (≈ 13.6 µM) | > 128 µg/mL | 16 µg/mL (≈ 27.2 µM) | 
CO[C@H]1C[C@H]2C=C[C@H]3[C@H]4O[C@]2(/C(C)=C/[C@@H](C)[C@@H]([C@@H](C)OC(=O)CBr)OC1=O)[C@@H]3[C@H](O)[C@@H](C)[C@H]4OC(=O)c1ccc[nH]1 [Example 56, (3R,4S,7S,8aS,10aR,11R,12R,13R,14R,14aS,14bS,E)-4-((R)-1-(2-bromoacetoxy)ethyl)-14-hydroxy-7-methoxy-1,3,13-trimethyl-6-oxo-3,4,6,7,8,8a,10a,11,12,13,14,14a-dodecahydro-11,14b-epoxynaphtho[2,1-e]oxecin-12-yl 1H-pyrrole-2-carboxylate] | 48.7 µM |  |  |  |  | IC50 ([2]; S. aureus DnaE IC50): < 0.00943 µM
CO[C@H]1C[C@H]2C=C[C@H]3[C@H]4O[C@]2(/C(C)=C/[C@@H](C)[C@@H]([C@@H](C)OCSC)OC1=O)[C@@H]3C(=O)[C@@H](C)[C@H]4OC(=O)c1ccc[nH]1 [Example 58] | 36.6 µM | > 174 µM | > 8 µg/mL | > 128 µg/mL |  | MIC ([5]; read-out: S. pneumoniae MB2883 (MIC), Isosensitest broth, * = some reduction of growth versus control at […]): > 128 µg/mL
CO[C@H]1C[C@H]2C=C[C@H]3[C@H]4O[C@]2(/C(C)=C/[C@@H](C)[C@@H]([C@@H](C)O)OC1=O)[C@@H]3[C@H](O)[C@@H](C)[C@H]4OC(=O)c1ccsc1 [Example 183] | 9.76 µM | < 0.0113 µM | 1 µg/mL (≈ 1.88 µM) | 16 µg/mL (≈ 30 µM) | 64 µg/mL (≈ 120 µM) | 
CO[C@H]1CC2C=C[C@H]3[C@H]4O[C@]2(/C(C)=C/[C@@H](C)[C@@H]([C@@H](C)OC(=O)NC(CO)(CO)CO)OC1=O)[C@@H]3[C@H](O)[C@@H](C)[C@H]4OC(=O)c1ccc[nH]1 (stereo partly shown) [Example 22] | > 151 µM | < 0.00905 µM | 4 µg/mL (≈ 6.04 µM) | 64 µg/mL (≈ 96.6 µM) | 64 µg/mL (≈ 96.6 µM) | 
CO[C@H]1C[C@H]2C=CC3C4[C@H](O)[C@@H](C)[C@@H](OC(=O)c5ccc[nH]5)[C@@H]3O[C@]42/C(C)=C/[C@@H](C)[C@@H]([C@@H](C)OC(=O)C(=O)OCCN(C)C)OC1=O.O=C(O)C(F)(F)F [Example 205] | 7.76 µM | < 0.00776 µM | 2 µg/mL | 64 µg/mL | > 128 µg/mL | 
CO[C@H]1C[C@H]2C=C[C@H]3[C@H]4O[C@]2(/C(C)=C/[C@@H](C)[C@@H]([C@@H](C)O)OC1=O)[C@@H]3[C@H](O)[C@@H](C)[C@@H]4N1CCCC1 [Example 161, (3R,4S,7S,8aS,10aR,11R,12S,13S,14R,14aS,14bS,E)-14-hydroxy-4-((R)-1-hydroxyethyl)-7-methoxy-1,3,13-trimethyl-12-(pyrrolidin-1-yl)-3,4,8,8a,10a,11,12,13,14,14a-decahydro-11,14b-epoxynaphtho[2,1-e]oxecin-6(7H)-one] | > 105 µM | 46.3 µM | > 64 µg/mL | > 64 µg/mL | > 64 µg/mL | 
CCCNC(=O)O[C@H](C)[C@H]1OC(=O)[C@@H](OC)C[C@H]2C=C[C@H]3[C@H]4O[C@]2(/C(C)=C/[C@H]1C)[C@@H]3[C@H](O)[C@@H](C)[C@H]4OC(=O)c1ccc[nH]1 [Example 2, (3R,4S,7S,8aS,10aR,11R,12R,13R,14R,14aS,14bS,E)-14-hydroxy-7-methoxy-1,3,13-trimethyl-6-oxo-4-((R)-1-((propylcarbamoyl)oxy)ethyl)-3 ,4,6,7,8,8a,10a,11,12,13,14,14a-dodecahydro-11,14b-epoxynaphtho[2,1-e]oxecin-12-yl 1H-pyrrole-2-carboxylate] | 51.6 µM |  |  |  |  | IC50 ([2]; S. aureus DnaE IC50): 0.035 µM
CO[C@H]1CC2C=C[C@H]3[C@H]4O[C@]2(/C(C)=C/[C@@H](C)[C@@H]([C@@H](C)OC(=O)OCCCO)OC1=O)[C@@H]3[C@H](O)[C@@H](C)[C@H]4OC(=O)c1ccc[nH]1 (stereo partly drawn) [Example 26, (3R,4S,7S,10aR,11R,12R,13R,14R,14aS,14bS,E)-14-hydroxy-4-((R)-1-(((3-hydroxypropoxy)carbonyl)oxy)ethyl)-7-methoxy-1,3,13-trimethyl-6-oxo-3,4,6,7,8,8a,10a,11,12,13,14,14a-dodecahydro-11,14b-epoxynaphtho[2,1-e]oxecin-12-yl 1H-pyrrole-2-carboxylate] | 130 µM |  |  |  |  | IC50 ([2]; S. aureus DnaE IC50): < 0.00971 µM
